Literature values, collected in patent US20080280850A1, “Methods and Compositions for Treating Flaviviruses, Pestiviruses and Hepacivirus” (priority 2004, published 2008).

System: HCV

NC(=O)c1ncn([C@@H]2O[C@H](CO)[C@@H](O)[C@H]2O)n1 [Ribavirin, 1-[…]D-ribofuranosyl-1-1,2,4-triazole-3-carboxamide]
effect on serum levels of HCV-RNA (patients, monotherapy): does not lower serum levels of HCV-RNA | serum amino transferase levels reduced to normal, share of patients (ribavirin alone): 40%
